The OPERA property sets (Mansouri et al. 2018)

conditions: not given

Row | SMILES | boiling point | log10 vapour pressure (mmHg) | melting point | ready biodegradability | log10 Henry constant (atm·m³/mol) | log10 Koa | log10 Koc (L/kg)
1 | CCc1cccc(C(C)C)c1 | 192 °C | – | – | – | – | – | –
2 | COP(=S)(OC)Oc1ccc(C#N)cc1 | – | -3.1 | 14.5 °C | not readily biodegradable | – | – | –
3 | O=[N+]([O-])c1c(Cl)ccc2ccccc12 | – | – | 99.5 °C | – | – | – | –
4 | O=[N+]([O-])c1ccc(Oc2ccc(C(F)(F)F)cc2[N+](=O)[O-])cc1 | – | – | 94 °C | – | – | – | –
5 | CCCCCCCC/C=C\CCCCCCCC(=O)OC | – | -5.2 | -19.9 °C | readily biodegradable | – | – | –
6 | Cc1ccc2c(c1C)CCCC2 | 252 °C | – | – | – | – | – | –
7 | C1=CCC(c2ccncc2)CC1 (centres undefined) | 226 °C | – | 22.1 °C | – | – | – | –
8 | CCC(C)Cl (centres undefined) | 68 °C | 2.19 | -140 °C | – | -1.62 | – | –
9 | CCCCc1ccc2ccccc2c1 | 292 °C | – | -5 °C | – | – | – | –
10 | CCCCCCCCC=CCCCCCCCCCCCCO | – | – | 35 °C | – | – | – | –
11 | Cc1c(Cc2cc(C(C)(C)C)c(O)c(C(C)(C)C)c2)c(C)c(Cc2cc(C(C)(C)C)c(O)c(C(C)(C)C)c2)c(C)c1Cc1cc(C(C)(C)C)c(O)c(C(C)(C)C)c1 | – | – | 244 °C | not readily biodegradable | – | – | –
12 | CCCCCOCCCCC | 190 °C | -0.067 | -69 °C | – | – | 4.8 | –
13 | CCCCCCCCCCCCCCCC=O | – | – | 35 °C | – | – | – | –
14 | CC(=O)N(c1ccccc1)c1ccccc1 | – | – | 103 °C | – | – | – | –
15 | O=C(O)C(Br)Br | – | – | 49 °C | – | -8.35 | – | –
16 | Clc1nnc(Cl)c2ccccc12 | – | – | – | not readily biodegradable | – | – | –
17 | CN1CCCCC1 | 107 °C | 1.29 | – | not readily biodegradable | -4.46 | – | –
18 | CCCCSC#N | 186 °C | – | – | – | – | – | –
19 | OCCC1CCCCC1 | 208 °C | -0.78 | -20 °C | – | – | – | –
20 | COC(=O)c1cccnc1 | 204 °C | – | 42.5 °C | – | – | – | –

Row | SMILES | boiling point | log10 vapour pressure (mmHg) | melting point | ready biodegradability | log10 Henry constant (atm·m³/mol) | log10 Koa | log10 Koc (L/kg)
21 | O=S1(=O)CCOCC1 | – | – | 132 °C | – | – | – | –
22 | OCCCF | 128 °C | – | – | – | – | – | –
23 | c1ccc2[nH]cnc2c1 | – | – | 170 °C | – | – | – | –
24 | C1=C\CC/C=C\CC/1 | – | – | – | not readily biodegradable | – | – | –
25 | O=C(OCC(COC(=O)c1cccnc1)(COC(=O)c1cccnc1)COC(=O)c1cccnc1)c1cccnc1 | – | – | 162 °C | – | – | – | –
26 | CC(C)CC(Cl)Cl | 130 °C | – | – | – | – | – | –
27 | Cc1cc([N+](=O)[O-])ccc1O | – | – | 96 °C | – | – | – | –
28 | COc1ccccc1OCCNCC(O)COc1cccc2[nH]c3ccccc3c12 (centres undefined) | – | – | 114 °C | – | – | – | –
29 | CCCCCCCCCCCCCCCC[N+](C)(C)C.[Br-] | – | – | 240 °C | – | – | – | –
30 | C=C(C)CCCC | 92 °C | 1.78 | -103 °C | – | – | – | –
31 | Fc1ccccn1 | 127 °C | – | – | – | – | – | –
32 | C[Si](C)(C)O[Si](C)(C)C | 99 °C | 1.62 | -66 °C | – | – | – | –
33 | COc1ccc2nc(N)sc2c1 | – | – | 166 °C | – | – | – | –
34 | OCC(O)CN1CCN(c2ccccc2)CC1 (centres undefined) | – | – | 105 °C | – | – | – | –
35 | COc1cccc(C)c1C | 199 °C | – | 29 °C | – | – | – | –
36 | CCc1ccc2ccccc2c1 | 258 °C | -1.5 | – | – | -3.27 | – | 3.76
37 | CCCCCCCCCCCBr | – | -1.92 | -9 °C | – | – | – | –
38 | CC(C)(C)C(=O)CC#N | – | – | 71 °C | – | – | – | –
39 | CC(=O)CCCCC(C)=O | – | – | 44 °C | – | – | – | –

same assay, conditions: fish

Row | SMILES | log10 BCF | log10 biotransformation half-life (days)
40 | CC(O)COCC(C)O (centres undefined) | 0.66 | –
41 | Brc1cc(Br)c(Oc2c(Br)cc(Br)c(Br)c2Br)cc1Br | – | 1.65
42 | Sc1nc2ccccc2s1 | 0.9 | –
43 | Cc1cc(=O)nc(C(C)C)[nH]1 | 0.26 | –
44 | CCCCCCC(C)OC(=O)COc1nc(F)c(Cl)c(N)c1Cl (centres undefined) | – | -0.61
45 | COP(=S)(OC)Oc1ccc(C#N)cc1 | 1.56 | 0.23
46 | Cc1cc2cc3cc(C)c(C)cc3cc2cc1C | – | 0.59
47 | CN1CCCCC1 | 0.65 | –
48 | CCOP(=S)(NC(C)CC)Oc1cc(C)ccc1[N+](=O)[O-] (centres undefined) | 2.46 | -0.2
